# Measured values reported in ChEMBL document CHEMBL2390898, “Optimizing the control of apoptosis by amide/triazole isosteric substitution in a constrained peptoid” (Eur J Med Chem, 2013).
# Calls of active or inactive are those of the source. No cut-off for these calls is given here.
# Assays:
# [1] = molecular target: T1, Apoptotic protease-activating factor 1 (Homo sapiens) (UniProt O14727); assay: Binding affinity to Apaf1 (unknown origin) assessed as inhibition of procaspase-9 activity
# T1 sequence (whole entry): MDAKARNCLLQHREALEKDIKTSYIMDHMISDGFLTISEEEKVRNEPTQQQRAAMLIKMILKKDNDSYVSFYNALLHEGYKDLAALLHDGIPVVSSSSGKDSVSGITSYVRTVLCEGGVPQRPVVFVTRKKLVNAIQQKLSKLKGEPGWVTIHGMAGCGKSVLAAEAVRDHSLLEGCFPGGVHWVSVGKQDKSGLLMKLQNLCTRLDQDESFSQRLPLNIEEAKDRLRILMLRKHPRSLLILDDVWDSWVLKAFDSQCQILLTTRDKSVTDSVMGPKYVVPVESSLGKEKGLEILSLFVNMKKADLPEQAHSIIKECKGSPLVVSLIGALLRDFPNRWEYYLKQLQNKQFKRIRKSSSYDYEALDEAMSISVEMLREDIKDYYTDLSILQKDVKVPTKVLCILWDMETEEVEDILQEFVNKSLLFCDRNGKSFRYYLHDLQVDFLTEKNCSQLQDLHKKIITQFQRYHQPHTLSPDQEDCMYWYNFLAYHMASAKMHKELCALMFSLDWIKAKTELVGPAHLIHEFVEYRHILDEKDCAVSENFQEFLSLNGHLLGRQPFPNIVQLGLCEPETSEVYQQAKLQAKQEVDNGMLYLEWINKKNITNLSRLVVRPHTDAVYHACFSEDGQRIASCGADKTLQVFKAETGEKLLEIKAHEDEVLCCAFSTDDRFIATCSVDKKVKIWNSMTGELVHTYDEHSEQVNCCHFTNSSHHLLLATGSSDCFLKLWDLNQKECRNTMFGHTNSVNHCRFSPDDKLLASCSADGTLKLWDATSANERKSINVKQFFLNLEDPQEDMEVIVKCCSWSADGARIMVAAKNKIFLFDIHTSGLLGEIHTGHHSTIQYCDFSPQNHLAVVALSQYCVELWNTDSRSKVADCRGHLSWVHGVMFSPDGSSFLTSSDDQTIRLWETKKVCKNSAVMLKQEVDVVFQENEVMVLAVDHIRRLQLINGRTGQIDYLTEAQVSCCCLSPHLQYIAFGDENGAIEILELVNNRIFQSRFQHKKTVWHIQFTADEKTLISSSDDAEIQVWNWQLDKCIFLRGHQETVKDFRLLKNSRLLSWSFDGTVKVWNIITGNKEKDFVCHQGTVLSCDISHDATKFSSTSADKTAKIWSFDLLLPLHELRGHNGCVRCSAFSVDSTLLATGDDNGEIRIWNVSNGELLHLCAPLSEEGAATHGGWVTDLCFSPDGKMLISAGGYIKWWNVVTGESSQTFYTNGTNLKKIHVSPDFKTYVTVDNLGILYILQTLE
# [2] = molecular target: T2, Caspase-9 (Homo sapiens) (UniProt P55211); assay: Inhibition of recombinant caspase-9 (unknown origin)
# T2 sequence (whole entry): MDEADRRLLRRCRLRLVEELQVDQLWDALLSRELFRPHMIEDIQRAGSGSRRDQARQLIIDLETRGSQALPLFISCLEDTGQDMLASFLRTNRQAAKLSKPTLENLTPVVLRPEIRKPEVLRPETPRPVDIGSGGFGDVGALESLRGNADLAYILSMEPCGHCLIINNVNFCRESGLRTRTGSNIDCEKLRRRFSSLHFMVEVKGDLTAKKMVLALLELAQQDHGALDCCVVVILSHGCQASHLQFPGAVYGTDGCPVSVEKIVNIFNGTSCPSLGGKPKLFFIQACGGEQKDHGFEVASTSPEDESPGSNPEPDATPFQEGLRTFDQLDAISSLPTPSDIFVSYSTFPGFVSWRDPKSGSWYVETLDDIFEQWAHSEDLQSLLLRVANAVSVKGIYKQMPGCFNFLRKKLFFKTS
Structure (SMILES),inhibition [1],inhibition [2]
O=C1C(c2cn(CCc3ccc(Cl)cc3Cl)nn2)N(CCC(c2ccccc2)c2ccccc2)C(=O)CN1CCc1ccc(Cl)cc1Cl (stereo not drawn),Active,inactive
NC(=O)CN(CCc1ccc(Cl)cc1Cl)C(=O)CC1C(=O)N(CCc2ccc(Cl)cc2Cl)CC(=O)N1CCC(c1ccccc1)c1ccccc1 (racemic),Active,inactive
O=C1C(c2cnnn2CCc2ccc(Cl)cc2Cl)N(CCC(c2ccccc2)c2ccccc2)C(=O)CN1CCc1ccc(Cl)cc1Cl (racemic),Active,inactive
O=C1CC(C(=O)NCCc2ccc(Cl)cc2Cl)(c2cnn(CCc3ccc(Cl)cc3Cl)n2)N1CCC(c1ccccc1)c1ccccc1 (racemic),Active,inactive
